pIC50: −log10 of the molar value.
Tests used:
[1] = Growth inhibition of human MCF7 cells at 10 uM after 72 hrs by MTT assay; type: functional; conditions: MCF7, 72 h, read-out: GI
[2] = Growth inhibition of human MCF7 cells at 30 uM after 72 hrs by MTT assay; type: functional; conditions: MCF7, 72 h, read-out: GI
[3] = Growth inhibition of human T47D cells at 10 uM after 72 hrs by MTT assay; type: functional; conditions: read-out: GI
[4] = Growth inhibition of human T47D cells at 30 uM after 72 hrs by MTT assay; type: functional; conditions: read-out: GI
[5] = Growth inhibition of human MDA-MB-231 cells at 10 uM after 72 hrs by MTT assay; type: functional; conditions: MDA-MB-231, 72 h, read-out: GI
[6] = Growth inhibition of human MDA-MB-231 cells at 30 uM after 72 hrs by MTT assay; type: functional; conditions: MDA-MB-231, 72 h, read-out: GI
[7] = Growth inhibition of human MDA-MB-361 cells at 10 uM after 72 hrs by MTT assay; type: functional; conditions: MDA-MB-361, 72 h, read-out: GI
[8] = Growth inhibition of human MDA-MB-361 cells at 30 uM after 72 hrs by MTT assay; type: functional; conditions: MDA-MB-361, 72 h, read-out: GI
[9] = biological target: T1, Steroid 17-alpha-hydroxylase/17,20 lyase (Rattus norvegicus, UniProt P11715); assay: Inhibition of Wistar rat testicular C17,20-lyase assessed as androst-4-ene-3,17-dione formation using [3H]17-hydroxyprogesterone as substrate in presence of NADPH
T1 sequence (P11715 whole entry): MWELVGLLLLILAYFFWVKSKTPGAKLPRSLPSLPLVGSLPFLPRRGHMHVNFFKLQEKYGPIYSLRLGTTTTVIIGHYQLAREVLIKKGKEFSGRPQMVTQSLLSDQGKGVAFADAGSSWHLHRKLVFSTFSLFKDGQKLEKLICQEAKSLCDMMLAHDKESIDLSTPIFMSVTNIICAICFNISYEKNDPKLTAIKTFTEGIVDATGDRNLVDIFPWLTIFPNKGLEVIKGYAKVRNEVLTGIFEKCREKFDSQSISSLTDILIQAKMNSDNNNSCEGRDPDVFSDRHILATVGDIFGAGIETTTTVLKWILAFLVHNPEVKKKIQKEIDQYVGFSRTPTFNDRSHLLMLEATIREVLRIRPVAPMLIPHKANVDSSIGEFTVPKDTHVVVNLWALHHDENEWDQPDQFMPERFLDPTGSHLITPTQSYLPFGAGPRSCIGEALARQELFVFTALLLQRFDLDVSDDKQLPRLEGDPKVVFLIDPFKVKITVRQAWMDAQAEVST

[10] = biological target: T1, Steroid 17-alpha-hydroxylase/17,20 lyase; assay: Potency index, ratio of ketoconazole IC50 to compound IC50 for Wistar rat testicular C17,20-lyase
[11] = Growth inhibition of human T47D cells after 72 hrs by MTT assay; type: functional, cell-based
[12] = Growth inhibition of human MDA-MB-231 cells after 72 hrs by MTT assay; type: functional, cell-based; conditions: MDA-MB-231, 72 h
[13] = Growth inhibition of human MDA-MB-361 cells after 72 hrs by MTT assay; type: functional, cell-based; conditions: MDA-MB-361, 72 h
[14] = Growth inhibition of human MCF7 cells after 72 hrs by MTT assay; type: functional, cell-based; conditions: MCF7, 72 h

| pIC50 [9] | Compound | inhibition of growth at 10 µM [1] [%] | inhibition of growth at 30 µM [2] [%] | inhibition of growth at 10 µM [3] [%] | inhibition of growth at 30 µM [4] [%] | inhibition of growth at 10 µM [5] [%] | inhibition of growth at 30 µM [6] [%] | inhibition of growth at 10 µM [7] [%] | inhibition of growth at 30 µM [8] [%] | Ratio IC50 [10] | pIC50 [11] | pIC50 [12] | pIC50 [13] | pIC50 [14] |
| --- | --- | --- | --- | --- | --- | --- | --- | --- | --- | --- | --- | --- | --- | --- |
| 7.59 | C[C@]12CC[C@H](O)CC1=CC[C@@H]1[C@@H]2CC[C@]2(C)C(c3n[nH]cc3CO)=CC[C@@H]12 | < 20 | < 20 | < 20 | 25.7 | < 20 | < 20 | < 20 | 35.6 | 12 | – | – | – | – |
| – | C[C@]12CC[C@H](O)CC1=CC[C@@H]1[C@@H]2CC[C@]2(C)C(c3nn(-c4ccc(Cl)cc4)cc3CO)=CC[C@@H]12 | 54.3 | 90.9 | 81 | 94.8 | 93.2 | 97.8 | 80 | 93.1 | – | 5.24 | 5.44 | 5.60 | – |
| – | COc1ccc(-n2cc(C=O)c(C3=CC[C@H]4[C@@H]5CC=C6C[C@@H](O)CC[C@]6(C)[C@H]5CC[C@]34C)n2)cc1 | 92.3 | 98.1 | 92.5 | 96.7 | 96.1 | 96.2 | 89.6 | 96.2 | – | 5.43 | 5.44 | 5.48 | 5.42 |
| – | C[C@]12CC[C@H](O)CC1=CC[C@@H]1[C@@H]2CC[C@]2(C)C(c3nn(-c4ccccc4)cc3CO)=CC[C@@H]12 | 79.2 | 89.8 | 74.4 | 90.6 | 85.2 | 93.2 | 90.6 | 96.1 | – | – | 5.28 | 5.68 | 5.47 |
| – | C[C@]12CC[C@H](O)CC1=CC[C@@H]1[C@@H]2CC[C@]2(C)C(c3nn(-c4ccc(C#N)cc4)cc3CO)=CC[C@@H]12 | 71.6 | 88.4 | 89.6 | 94.5 | 95.9 | 96.4 | 86.5 | 91.9 | – | 5.92 | 5.74 | 5.80 | 5.85 |
| – | C[C@]12CC[C@H](O)CC1=CC[C@@H]1[C@@H]2CC[C@]2(C)C(c3nn(-c4ccccc4)cc3C=O)=CC[C@@H]12 | 93.4 | 98.1 | 93.2 | 96.9 | 93.5 | 96.3 | 88.6 | 95.8 | – | 5.41 | 5.27 | 5.42 | 5.43 |
| – | C[C@]12CC[C@H](O)CC1=CC[C@@H]1[C@@H]2CC[C@]2(C)C(c3nn(-c4ccc(Br)cc4)cc3CO)=CC[C@@H]12 | 65.9 | 86.9 | 68.2 | 85.9 | 76.8 | 88.2 | 83.5 | 91.5 | – | – | 5.40 | 5.70 | – |
| 8.11 | C[C@]12CC[C@H](O)CC1=CC[C@@H]1[C@@H]2CC[C@]2(C)C(c3ccn[nH]3)=CC[C@@H]12 | – | – | – | – | – | – | – | – | – | – | – | – | – |
| – | C[C@]12CC[C@H](O)CC1=CC[C@@H]1[C@@H]2CC[C@]2(C)C(c3nn(-c4ccc([N+](=O)[O-])cc4)cc3CO)=CC[C@@H]12 | 65.4 | 87.6 | 73.2 | 84.7 | 78.1 | 92.7 | 82.2 | 91.9 | – | – | 5.37 | 5.57 | – |
| – | C[C@]12CC[C@H](O)CC1=CC[C@@H]1[C@@H]2CC[C@]2(C)C(c3cccnc3)=CC[C@@H]12 [ABIRATERONE] | 12.4 | 74.7 | 32.5 | 70.8 | 14.3 | 85 | 32.2 | 61.2 | – | 4.77 | 4.72 | 4.69 | 4.71 |
| – | CC(=O)O[C@H]1CC[C@@]2(C)C(=CC[C@@H]3[C@@H]2CC[C@]2(C)C(c4n[nH]cc4C=O)=CC[C@@H]32)C1 | < 20 | 83.5 | < 20 | 63.3 | < 20 | < 20 | < 20 | 64.2 | – | – | – | – | – |
| 7.18 | C[C@]12CC[C@H](O)CC1=CC[C@@H]1[C@@H]2CC[C@]2(C)C(c3n[nH]cc3C=O)=CC[C@@H]12 | 31.4 | 80.8 | 43.2 | 77 | 54.3 | 93.7 | 42.6 | 79.7 | – | – | – | – | – |
| – | Cn1cc(C#N)c(C2=CC[C@H]3[C@@H]4CC=C5C[C@@H](O)CC[C@]5(C)[C@H]4CC[C@]23C)n1 | < 20 | 40.9 | < 20 | 29.6 | < 20 | 32.6 | < 20 | 32.5 | – | – | – | – | – |
| 7.04 | C[C@]12CC[C@H](O)CC1=CC[C@@H]1[C@@H]2CC[C@]2(C)C(c3n[nH]cc3C#N)=CC[C@@H]12 | 36.6 | 63.4 | 46.8 | 75.7 | 23.3 | 88.4 | 46.6 | 80.4 | – | – | – | – | – |
| – | C[C@]12CC[C@H](O)CC1=CC[C@@H]1[C@@H]2CC[C@]2(C)C(c3nn(-c4ccc(C#N)cc4)cc3C=O)=CC[C@@H]12 | 64.4 | 80.2 | 66.9 | 86.4 | 49.1 | 93.1 | 60.8 | 74.3 | – | – | – | – | – |
| – | CC(=O)O[C@H]1CC[C@@]2(C)C(=CC[C@@H]3[C@@H]2CC[C@]2(C)C(c4nn(-c5ccc(C)cc5)cc4C=O)=CC[C@@H]32)C1 | 24.6 | 44.4 | 37.2 | 50.8 | < 20 | 27.2 | < 20 | 34.9 | – | – | – | – | – |

Reference: ChEMBL document CHEMBL3856198, “Synthesis of novel 17-(4'-formyl)pyrazolylandrosta-5,16-dienes and their derivatives as potent 17α-hydroxylase/C17,20-lyase inhibitors or antiproliferative agents depending on the substitution pattern of the heteroring” (Eur J Med Chem, 2016)
